Test results taken from the NIST ThermoML archive (doi:10.1021/je100832h).
Numbers after ± are expanded uncertainties.

Conditions: Liquid; for mass density: 101.32 kPa, Vibrating tube method; for vapor or sublimation pressure: Ebulliometric method (Recirculating still)

CCCCCCCCC [nonane]
Conditions	mass density [kg/m3]	vapor or sublimation pressure [kPa]
291.15 K	719.2 ± 0.56	–
298.15 K	713.85 ± 0.55	–
318.15 K	698.09 ± 0.54	–
328.15 K	690.4 ± 0.54	–
365.3 K	–	15.58 ± 0.06
369.25 K	–	18.07 ± 0.06
372.81 K	–	20.58 ± 0.07
376.46 K	–	23.49 ± 0.07
379.71 K	–	26.35 ± 0.08
382.25 K	–	28.78 ± 0.08
384.65 K	–	31.22 ± 0.09
387.02 K	–	33.8 ± 0.09
389.45 K	–	36.62 ± 0.1
391.8 K	–	39.52 ± 0.1
393.48 K	–	41.74 ± 0.11
395.26 K	–	44.15 ± 0.11
396.96 K	–	46.56 ± 0.12
398.71 K	–	49.15 ± 0.12
400.61 K	–	52.12 ± 0.13
402.01 K	–	54.42 ± 0.13
403.31 K	–	56.55 ± 0.14
404.73 K	–	59.01 ± 0.14
406.27 K	–	61.77 ± 0.15
407.78 K	–	64.58 ± 0.16
408.93 K	–	66.76 ± 0.16
410.11 K	–	69.09 ± 0.17
411.32 K	–	71.53 ± 0.17
412.52 K	–	74.01 ± 0.18
413.68 K	–	76.48 ± 0.18
414.83 K	–	79.03 ± 0.19
415.9 K	–	81.41 ± 0.19
417.22 K	–	84.44 ± 0.2
418.24 K	–	86.85 ± 0.2
419.28 K	–	89.41 ± 0.21
420.5 K	–	92.43 ± 0.21
421.62 K	–	95.25 ± 0.22
422.83 K	–	98.4 ± 0.23
423.2 K	–	99.35 ± 0.23
423.61 K	–	100.44 ± 0.23
423.94 K	–	101.32 ± 0.23
424.92 K	–	104 ± 0.24
425.83 K	–	106.5 ± 0.24
426.71 K	–	108.99 ± 0.25
427.6 K	–	111.54 ± 0.25
428.4 K	–	113.88 ± 0.26
429.26 K	–	116.44 ± 0.27
430.22 K	–	119.35 ± 0.27
431.09 K	–	122.04 ± 0.28
432.04 K	–	124.99 ± 0.28
432.94 K	–	127.82 ± 0.29
433.74 K	–	130.52 ± 0.3
434.68 K	–	133.6 ± 0.3
435.58 K	–	136.62 ± 0.31
436.31 K	–	139.12 ± 0.31
437.11 K	–	141.9 ± 0.32
437.95 K	–	144.81 ± 0.33
438.67 K	–	147.42 ± 0.33
439.45 K	–	150.23 ± 0.34
440.11 K	–	152.67 ± 0.34
440.76 K	–	155.08 ± 0.35
441.41 K	–	157.53 ± 0.35
442.05 K	–	159.98 ± 0.36
442.77 K	–	162.8 ± 0.36
443.49 K	–	165.61 ± 0.37
444.23 K	–	168.53 ± 0.38
444.93 K	–	171.39 ± 0.38
445.49 K	–	173.63 ± 0.39
446.19 K	–	176.52 ± 0.39
446.75 K	–	178.85 ± 0.4
447.44 K	–	181.82 ± 0.41
448.07 K	–	184.55 ± 0.41
448.61 K	–	186.86 ± 0.41
449.27 K	–	189.75 ± 0.42
449.81 K	–	192 ± 1
450.56 K	–	195.54 ± 0.44

CCCCCC [hexane]
Conditions	mass density [kg/m3]	vapor or sublimation pressure [kPa]
291.15 K	661.17 ± 0.52	–
292.98 K	–	15.88 ± 0.06
296.27 K	–	18.39 ± 0.06
298.15 K	654.9 ± 0.51	–
298.95 K	–	20.69 ± 0.07
302.2 K	–	23.81 ± 0.07
304.49 K	–	26.19 ± 0.08
306.76 K	–	28.77 ± 0.09
308.28 K	–	30.68 ± 0.09
310.14 K	–	32.97 ± 0.09
311.96 K	–	35.53 ± 0.1
313.7 K	–	37.95 ± 0.1
315.07 K	–	40.1 ± 0.11
316.51 K	–	42.3 ± 0.11
317.91 K	–	44.59 ± 0.12
318.15 K	636.5 ± 0.5	–
319.58 K	–	47.35 ± 0.12
320.83 K	–	49.63 ± 0.13
322.02 K	–	51.87 ± 0.13
323.45 K	–	54.51 ± 0.14
324.35 K	–	56.42 ± 0.14
325.74 K	–	59.15 ± 0.15
327.09 K	–	62.05 ± 0.16
327.99 K	–	64.02 ± 0.16
328.15 K	627 ± 0.5	–
329.13 K	–	66.61 ± 0.17
330.14 K	–	68.93 ± 0.17
330.93 K	–	70.86 ± 0.18
331.87 K	–	73.11 ± 0.18
332.87 K	–	75.62 ± 0.19
333.77 K	–	78.04 ± 0.19
334.61 K	–	80.11 ± 0.2
335.65 K	–	82.94 ± 0.2
336.53 K	–	85.4 ± 0.21
337.38 K	–	87.73 ± 0.21
338.26 K	–	90.28 ± 0.22
339.25 K	–	93.18 ± 0.23
340.1 K	–	95.79 ± 0.23
340.92 K	–	98.28 ± 0.24
341.17 K	–	99.08 ± 0.24
341.6 K	–	100.39 ± 0.24
341.88 K	–	101.32 ± 0.25
342.34 K	–	102.83 ± 0.25
343.01 K	–	104.95 ± 0.25
343.62 K	–	106.98 ± 0.26
344.52 K	–	110.01 ± 0.27
344.69 K	–	110.65 ± 0.27
345.43 K	–	113.16 ± 0.27
346.05 K	–	115.31 ± 0.27
346.66 K	–	117.46 ± 0.28
347.36 K	–	119.99 ± 0.28
348.05 K	–	122.52 ± 0.29
348.44 K	–	124.01 ± 0.29
349.04 K	–	126.23 ± 0.3
349.61 K	–	128.44 ± 0.3
349.82 K	–	129.32 ± 0.3
350.34 K	–	131.23 ± 0.31
350.82 K	–	133.07 ± 0.31
351.42 K	–	135.49 ± 0.32
351.93 K	–	137.54 ± 0.32
352.53 K	–	139.99 ± 0.33
352.83 K	–	141.31 ± 0.33
353.22 K	–	142.8 ± 0.34
353.87 K	–	145.75 ± 0.34
354.23 K	–	147.04 ± 0.34
354.71 K	–	149.34 ± 0.35
355.4 K	–	152.14 ± 0.35
355.66 K	–	153.31 ± 0.36
356.04 K	–	155.14 ± 0.36
356.52 K	–	157.29 ± 0.36
357.01 K	–	159.38 ± 0.37
357.38 K	–	161.05 ± 0.37
357.8 K	–	162.94 ± 0.38
358.47 K	–	166.02 ± 0.38
358.88 K	–	167.98 ± 0.39
359.18 K	–	169.31 ± 0.39
359.69 K	–	171.84 ± 0.4
359.9 K	–	172.89 ± 0.4
360.51 K	–	175.78 ± 0.4
360.8 K	–	177.31 ± 0.41
361.09 K	–	178.67 ± 0.41
361.54 K	–	180.95 ± 0.42
361.86 K	–	182.61 ± 0.42
362.43 K	–	185.32 ± 0.42
362.68 K	–	186.64 ± 0.43
362.98 K	–	188.2 ± 0.43
363.52 K	–	191.05 ± 0.44
363.95 K	–	193.35 ± 0.44
